Source: patent US9314510B2, “Human laminin α2 chain LG3 domain and active peptides promoting cell adhesion, spreading, migration, and neurite outgrowth” (SNU R&DB Foundation, priority 2011, dated 2016)
Ends that are not written are not given here.

Assays:
Type in all cases: cell-based, rat
[1] = tested on: PKCδ; experiment: Tyrosine phosphorylation of PKCδ (immunoprecipitation and Western blotting); details: PC12 cells on coated dishes, 30 min
Method: PC12 cells were incubated on dishes coated with laminin, rLG3, or the Ln2-LG3-P2 peptide for 30 min and the interaction of PKCδ with phosphotyrosine was examined using immunoprecipitation and Western blotting.

[2] = tested on: PC12 cells; experiment: Immunostaining of actin stress fibers and focal adhesions; details: PC12 cells on coated chamber slides, 3 h, serum-free
Method: Specifically, for immunostaining, PC12 cells were incubated on Lab-Tek chamber slides (Nalge Nunc International, Rochester, N.Y.) coated with laminin (5 μg/mL), rLG domain proteins (25 μg/mL), or Scrambled peptide (SP) (25 μg/well) in serum-free medium for 3 h at 37° C. Lab-Tek chamber slides were coated with BSA for the control. After rinsing with PBS, PC12 cells were fixed with 3.7% formalin for 20 min and permeabilized with 0.5% Triton X-100 for 5 min. PC12 cells were incubated with primary antibodies for 12 h at 4° C. The primary antibodies used were 1:500 anti-vinculin (Sigma-Aldrich 9131), or 1:300 rhodamin-phalloidin (Invitrogen R154) antibodies. After rinsing with PBS, PC12 cells were immunostained with FITC-conjugated anti-mouse IgG antibody (Jackson ImmunoResearch Laboratories, West Grove, Pa.) or rhodamin-conjugated anti-mouse IgG antibody (Santa Cruz Biotechnology) for 1 h at room temperature. After being washed three times with PBS, the stained PC12 cells were mounted and photographed using a confocal laser scanning microscope (FV300; Olympus, Japan).

[3] = tested on: PC12 cells; experiment: Cell adhesion assay on coated plates (crystal violet, absorbance 570 nm); details: 1 h, serum-free; for cell adhesion: PC12 cells on coated plates, laminin 5 μg/mL, rLG proteins 25 μg/mL, peptides 62.5 μg/mL (0 to 125 μg/mL in FIG. 2B)
Method: The cell adhesion assay was performed as described in a paper published previously by the present inventors (Kim, J. M., et al, Exp. Cell Res, 2005).
Specifically, 24-well culture plates (Nunc, Denmark) were coated with 5 μg/mL human placental laminin (Sigma-Aldrich, St. Louis, Mo.) or 25 μg/mL rLG domain proteins for 12 h at 4° C. The peptides were also coated on the plates by drying for 12 h at room temperature. The substrate-coated plates were blocked with 1% heat-inactivated bovine serum albumin (BSA) in PBS for 1 h at 37° C. and then washed with PBS.
The cells were trypsinized with trypsin/EDTA and resuspended in serum-free culture medium. The cells were added at a density of 2×10^5 cells/500 μL to each plate and incubated in serum-free culture medium for 1 h at 37° C. After incubation, unattached cells were removed by rinsing twice with PBS. The attached cells were fixed with 10% formalin for 15 min and then stained with 0.5% crystal violet for 1 h. Plates were gently washed with distilled water three times and dissolved with 2% SDS for 5 min. Absorbance was measured at 570 nm using a microplate reader (BioRad).
First, PC12 cells were cultured on plates coated with varying amounts of five kinds of Ln2-PG3 peptides and then cell adhesion was observed. The peptides were coated in concentrations ranging from 0 to 125 μg/mL on plates by drying them for 12 h at room temperature.
(§1) The present inventors compared the cellular activities of Ln2-LG3-P2 peptide to scrambled peptide (SEQ ID NO:20, NWEIRCIPGNPF) of Ln2-LG3-P2 peptide and Ln2-LG3-P1 peptide to Ln2-LG3-P5 peptide at a concentration of 62.5 μg/mL where the cell adhesion activity was the maximum. […] PC12 cells were cultured on plates which were coated in the same way for 3 h in serum-free medium and the cell spreading was observed.
(§2) Specifically, to observe cell adhesion, spreading, migration, and neurite outgrowth promotion, the methods described in Experimental examples <2-1> to <2-3> were used and PC12 cells were cultured on plates coated with laminin (5 μg/mL), rLG3 (25 μg/mL), and rLG3-M1 (25 μg/mL) and observed. To observe cell adhesion, PC12 cells were incubated on the coated plates for 1 h and to observe cell spreading, PC12 cells were incubated on the coated plates for 3 h. To observe cell migration, PC12 cells were incubated on the coated plates for […].
(§3) To measure cell adhesion, spreading, migration, and neurite outgrowth promotive activities of PC12 cells using the prepared synthetic peptides that are N- and C-terminal truncated or C-terminal added peptides of the Ln2-LG3-P2 peptide, peptides described in Table 1 were coated onto plates at 62.5 μg/mL and PC12 cells were seeded thereon.

[4] = tested on: PC12 cells; experiment: Cell migration assay (transwell migration chambers); details: transwell filters coated with laminin 5 μg/mL, rLG proteins 25 μg/mL or peptides 62.5 μg/mL, 24 h
Method: Cell migration assays were performed using transwell migration chambers of 8 μm in pore size (Corning Inc., NY) as described in a paper published previously by the present inventors (Kim, J. M., Min, S. K., Kim, H., Kang, H. K., Jung, S. Y., Lee, S. H., Choi, Y., Roh, S., Jeong, D., and Min, B. M. (2007) Int. J. Mol. Med.).
The lower sides of transwell filters were coated with laminin (5 μg/mL) or rLG proteins (25 μg/mL) for 12 h at 4° C. The lower sides of transwell filters were blocked with 1% BSA in PBS for 1 h at 37° C. Cells were suspended at a density of 4×10^5 cells/mL in RPMI 1640 medium containing 0.5% FBS and 0.1% BSA. 100 μL of this suspension was seeded in the upper chamber of the transwell filter. Cells were allowed to migrate for 24 h at 37° C. and then fixed with 10% formalin for 15 min and stained with 0.5% crystal violet. Non-migrated cells in the upper chamber of transwell filters were removed with a cotton swab, viewed under a light microscope, and counted.
as §2

[5] = tested on: PC12 cells; experiment: Cell spreading assay on coated plates (cell surface area); details: 3 h, laminin 5 μg/mL, rLG proteins 25 μg/mL, peptides 62.5 μg/mL
Method: To determine cell spreading assays, the cells cultured on plates coated with each rLG domain protein for 1 h or 3 h in Experimental example <2-1> were fixed with 10% formalin. Then, the fixed cells were stained with 0.05% crystal violet for 1 h and plates were gently washed with PBS three times. The surface area of cells was measured with Image-Pro plus software (Version 4.5; Media Cybernetics, Silver Spring, Md.).
as §1, §2, §3

Molecule: RNIPPFEGCIWN (RNIPPFEGCIWN-NH2; listed as Homo sapiens) [Ln2-LG3-P2, 12-mer peptide, position 2675 to 2686 in human laminin α2 chain]
- tyrosine phosphorylation of PKCδ [1]: increased
- actin stress fiber formation and focal adhesions [2]: formed stress fiber formation, and focal adhesions but to a lesser degree than those on laminin
- cell spreading (immunostaining) [2]: spread well
- cell adhesion [3]: promoted the cell adhesion
- coating concentration at which cell adhesion activity reached the maximum level ([3]; PC12 cells): 62.5 µg/mL
- cell migration [4]: comparable to that of rLG3
- cell spreading [5]: comparable to that of rLG3

Molecule: laminin [reference compound]
- tyrosine phosphorylation of PKCδ [1]: increased
- actin stress fiber formation and focal adhesions [2]: formed actin stress fibers and focal adhesions
- cell spreading (immunostaining) [2]: spread very well
- cell adhesion [3]: promoted cell adhesion
- cell migration [4]: promoted cell migration
- cell spreading [5]: promoted cell spreading

B1: rLG3: recombinant His6-tagged human laminin α2 chain LG3 domain, amino acids 2537 to 2745 (protein, listed as Homo sapiens)
chain: VELSPVPIDVGTEINLSFSTKNESGIILLGSGGTPAPPRRKRRQTGQAYYVILLNRGRLEVHLSTGARTMRKIVIRPEPNLFHDGREHSVHVERTRGIFTVQVDENRRYMQNLTVEQPIEVKKLFVGGAPPEFQPSPLRNIPPFEGCIWNLVINSVPMDFARPVSFKNADIGRCAHQKLREDEDGAAPAEIVIQPEPVPTPAFPTPTPV
modifications: His6 tag
- tyrosine phosphorylation of PKCδ [1]: increased
- actin stress fiber formation and focal adhesions [2]: formed stress fiber formation, and focal adhesions but to a lesser degree than those on laminin
- cell spreading (immunostaining) [2]: spread well
- cell adhesion [3]: adhered to rLG1, rLG3, and rLG4 in a dose-dependent manner
- cell migration [4]: induced cell migration significantly
- cell spreading [5]: induced cell spreading
